Our source for the Ki values is ChEMBL document CHEMBL1153947, “Carbonic anhydrase inhibitors. Inhibition of cytosolic isoforms I, II, III, VII and XIII with less investigated inorganic anions” (Bioorg Med Chem Lett, 2009).

The target in one assay is Carbonic anhydrase 1 (Homo sapiens, UniProt P00915). Kind of assay: Inhibition of human recombinant carbonic anhydrase 1-catalyzed CO2 hydration by stopped flow assay.
The next assay concerns the target Carbonic anhydrase 7 (Homo sapiens, UniProt P43166). Kind of assay: Inhibition of human recombinant carbonic anhydrase 7-catalyzed CO2 hydration by stopped flow assay.
In a further assay the target is Carbonic anhydrase 13 (Mus musculus, UniProt Q9D6N1). Kind of assay: Inhibition of mouse recombinant carbonic anhydrase 13-catalyzed CO2 hydration by stopped flow assay.
A further assay concerns the target Carbonic anhydrase 2 (Homo sapiens, UniProt P00918). The assay is described as follows: Inhibition of human recombinant carbonic anhydrase 2-catalyzed CO2 hydration by stopped flow assay.

Carbonic anhydrase 1, sequence (P00915 whole entry): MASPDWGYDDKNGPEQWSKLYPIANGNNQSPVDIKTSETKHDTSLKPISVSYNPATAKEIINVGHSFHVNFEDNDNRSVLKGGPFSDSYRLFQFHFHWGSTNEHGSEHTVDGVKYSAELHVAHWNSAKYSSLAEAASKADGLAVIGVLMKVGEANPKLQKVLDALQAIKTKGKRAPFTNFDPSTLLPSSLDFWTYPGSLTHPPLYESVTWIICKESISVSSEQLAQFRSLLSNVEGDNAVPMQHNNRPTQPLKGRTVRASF
Carbonic anhydrase 13, sequence (Q9D6N1 whole entry): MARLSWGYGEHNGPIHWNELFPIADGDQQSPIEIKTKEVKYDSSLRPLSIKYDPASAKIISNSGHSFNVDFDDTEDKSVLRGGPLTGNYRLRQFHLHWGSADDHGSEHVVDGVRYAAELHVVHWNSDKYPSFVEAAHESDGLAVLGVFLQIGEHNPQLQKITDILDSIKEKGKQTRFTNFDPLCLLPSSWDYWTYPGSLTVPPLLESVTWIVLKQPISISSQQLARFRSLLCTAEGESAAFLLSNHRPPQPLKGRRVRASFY
Carbonic anhydrase 7, sequence (P43166 whole entry): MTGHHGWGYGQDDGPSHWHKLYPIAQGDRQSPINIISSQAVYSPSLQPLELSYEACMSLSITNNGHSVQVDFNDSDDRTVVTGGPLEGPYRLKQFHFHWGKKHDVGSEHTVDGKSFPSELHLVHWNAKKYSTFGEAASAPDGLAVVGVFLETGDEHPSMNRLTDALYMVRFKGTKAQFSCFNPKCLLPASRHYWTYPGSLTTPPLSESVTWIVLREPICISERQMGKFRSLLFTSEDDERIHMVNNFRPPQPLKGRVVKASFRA

As usually defined, the Ki is the equilibrium dissociation constant of an inhibitor or competing ligand from its target. As to `CCN(CC)C(=S)S` [DITIOCARB SODIUM], the figures for the Ki at Carbonic anhydrase 1, at Carbonic anhydrase 7 and on Carbonic anhydrase 13 were 0.79 µM, 1470 µM and 56 µM, respectively.

Regarding `S=C(S)S` [SODIUM CARBONOTRITHIOATE], the Ki on Carbonic anhydrase 1 is 8.7 µM; on Carbonic anhydrase 7 it was 36200 µM; on Carbonic anhydrase 13, 430 µM.

Take `O=S(=O)(O)NS(=O)(=O)O` [SODIUM IMINODISULFONATE]: the Ki at Carbonic anhydrase 1 was found to be 310 µM; at Carbonic anhydrase 7 it was 39100 µM; at Carbonic anhydrase 13, 980 µM.

As for `O=S(=O)(O)OOS(=O)(=O)O` [SODIUM PERSULFATE], the Ki at Carbonic anhydrase 7 is 3110 µM; on Carbonic anhydrase 13 it was 4310 µM.

With `O=P(O)(O)OP(=O)(O)O` [SODIUM PYROPHOSPHATE], the Ki was 25800 µM at Carbonic anhydrase 1, 870 µM on Carbonic anhydrase 7 and 730 µM at Carbonic anhydrase 13.

`O=S(=O)(O)OS(=O)(=O)O` [SODIUM PYROSULFATE]: the Ki on Carbonic anhydrase 1 worked out at 990 µM; at Carbonic anhydrase 2, 970 µM; on Carbonic anhydrase 7, 760 µM; at Carbonic anhydrase 13 it was 710 µM.

Turning to `O=[Se](=O)(O)O` [SODIUM SELENATE], the values for the Ki at Carbonic anhydrase 1, on Carbonic anhydrase 7 and at Carbonic anhydrase 13 were 118000 µM, 215000 µM and 484000 µM, respectively.

As for `N#C[SeH]` [SODIUM SELENOCYANATE], the Ki was found to be 85 µM on Carbonic anhydrase 1, 1100 µM on Carbonic anhydrase 7 and 26500 µM on Carbonic anhydrase 13.

As for `O=[Te](=O)(O)O` [SODIUM TELLURATE], the figures for the Ki at Carbonic anhydrase 1, at Carbonic anhydrase 7 and at Carbonic anhydrase 13 were 660 µM, 460 µM and 380 µM, respectively.
